Reference: ChEMBL document CHEMBL1201862, “PubChem BioAssay data set” (2004)
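Where inhibition never reached the appropriate level, the endpoint shown equals the highest concentration tested. Otherwise, values were interpolated linearly from a five-concentration, 48-hour dose response in 96-well plates. GI50: concentration for 50% inhibition of growth.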 Activity calls are given as the source filed them. Cut-off read from the data, not from the text of the source: active = GI50 up to about 1.1 µM and inactive = higher.

Experiments:
Assay in all cases: DTP human tumour cell line panel, 48 h
[1] = tested on: KM12
[2] = tested on: CAKI-1
[3] = tested on: MOLT-4
[4] = tested on: OVCAR-4
[5] = tested on: OVCAR-3
[6] = tested on: SNB-19
[7] = tested on: SF-295
[8] = tested on: OVCAR-8
[9] = tested on: CCRF-CEM
[10] = tested on: HCT-116
[11] = tested on: EKVX
[12] = tested on: HOP-62
[13] = tested on: UO-31
[14] = tested on: HOP-92
[15] = tested on: TK-10

Measured: GI50

Cc1cccc(C)c1NC(=O)CCCC(=O)C(C#N)c1ccccc1 (stereo unspecified)
inactive: [1] > 10 µM | [2] > 100 µM | [3] > 100 µM | [4] > 100 µM | [5] > 10 µM | [6] > 10 µM | [7] > 10 µM | [8] > 10 µM | [9] > 100 µM | [10] > 100 µM | [11] > 10 µM | [12] > 10 µM | [13] > 100 µM | [14] > 100 µM

O=C(O)c1c2c(c(C(=O)O)c3ccccc13)-c1ccccc1-2
inactive: [1] 38.4 µM | [3] 39.5 µM | [5] 27.5 µM | [6] 36.6 µM | [7] 33.6 µM | [8] 39.9 µM | [9] 32.5 µM | [10] 78.9 µM | [15] 36.1 µM | [11] 31.4 µM | [12] 31.7 µM | [13] 28.1 µM | [14] 23.3 µM

CC1=CC(=O)c2c(C=O)c(O)c(O)c(C(C)C)c2C1=O
inactive: [2] 21.2 µM | [3] 21.2 µM | [4] 14.6 µM | [6] 39.5 µM | [9] 14.7 µM | [10] 18.3 µM | [12] 32.5 µM | [13] 22 µM | [14] 20.9 µM

CCc1cc(C)cc2[n+]1CC=C2C.[O-][Cl+3]([O-])([O-])[O-]
inactive: [1] > 100 µM | [2] 65.9 µM | [4] > 100 µM | [5] 93.1 µM | [6] > 100 µM | [7] > 100 µM | [8] > 100 µM | [15] > 100 µM | [11] > 100 µM | [12] > 100 µM | [13] > 100 µM | [14] 8.63 µM

O=C1CC(c2ccccc2)NCN1 (stereo unspecified)
inactive: [1] > 100 µM | [2] > 100 µM | [3] > 100 µM | [4] > 100 µM | [5] > 100 µM | [6] > 100 µM | [7] > 100 µM | [8] > 100 µM | [9] > 100 µM | [10] > 100 µM | [15] > 100 µM | [11] > 100 µM | [12] > 100 µM | [13] > 100 µM

S=C(Nc1ccccc1)Nc1ccccc1SC(/C=C/NNC1=NN=C(c2ccccc2)C(c2ccccc2)N1)c1ccccc1 (stereo unspecified)
inactive: [1] > 100 µM | [2] > 100 µM | [3] 13.4 µM | [4] 5.68 µM | [5] > 100 µM | [6] > 100 µM | [7] 69.3 µM | [8] > 100 µM | [9] 28.5 µM | [10] > 100 µM | [15] > 100 µM | [11] > 100 µM | [12] 16.7 µM | [14] 3.97 µM

O=C(O)c1c(-c2cccc3ccccc23)sc(-c2cccc3ccccc23)c1C(=O)O
inactive: [1] 36.6 µM | [3] 27.2 µM | [5] 63.8 µM | [6] > 100 µM | [7] > 100 µM | [8] > 100 µM | [9] 22.1 µM | [10] > 100 µM | [15] > 100 µM | [11] 90.8 µM | [13] 88.3 µM | [14] > 100 µM

COc1c(O)c2c3c(cc(C)cc3c1C(C)C)OC2
inactive: [1] > 100 µM | [3] > 100 µM | [4] > 100 µM | [5] > 100 µM | [6] > 100 µM | [7] > 100 µM | [8] > 100 µM | [9] > 100 µM | [10] > 100 µM | [15] > 100 µM | [11] > 100 µM | [13] > 100 µM | [14] > 100 µM
